# Reference: PubChem BioAssay AID2060607 (Molecular Pharmacology Branch, DTP, NCI, 2025)
# Tested on: 876862-298-R-J1-PDC complex spheroids, viability % test/control
# Test: Anticancer human tumor 876862-298-R-J1-PDC patient-derived endometrial carcinoma cell line growth inhibition [CLK]
# Settings: for IC50: curve of first compound; for viability, T/C: stronger effect = lower value
# Source text: A high-throughput screen of multi-cell type tumor spheroids was designed to identify active combinations of […] and targeted small molecules. Complex spheroids include a stromal component modeled by human endothelial cells (HUVEC) and fibroblasts modeled by human mesenchymal stem cells (MSCs). The concentration ranges selected for each drug and investigational agent were based upon clinically achievable concentrations if the clinical Cmax of the agent was known.
# Compounds. The drugs and investigational agents: cirtuvivint (SM08502; NSC835563), CC-671 (NSC850746), vemurafenib (NSC761431), tapotoclax (NSC804041), sotorasib (NSC818433), adagrasib (NSC831453), MRTX-1133 (NSC836407), BAY2416964 (NSC825713), copanlisib (NSC816437), inavolisib (NSC800729), abemaciclib (NSC768073), osimertinib (NSC779217), entinostat (NSC756642), eltanexor (KPT-8602, NSC794443), venetoclax (NSC766270), ceralasertib (NSC777638), bortezomib (NSC756655), olaparib (NSC753686), talazoparib (NSC767125), alisertib (NSC759677), peposertib (NSC802822), gemcitabine (NSC613327), 5-fluorouracil (NSC19893), SN-38 (NSC673596), oxaliplatin (NSC266046), paclitaxel (NSC125973), and doxorubicin (NSC123127), were obtained from the National Cancer Institute (NCI) Developmental Therapeutics Program Chemical Repository. The FDA-approved anticancer drug set is available from the Developmental Therapeutics Program at https://dtp.cancer.gov/organization/dscb/obtaining/available plates.htm. […] The stock solutions were prepared in dimethyl sulfoxide (DMSO, Sigma-Aldrich, St. Louis, MO, cat. D2650), except for the platinum complexes which were prepared in saline (Quality Biological, Gaithersburg, MD, cat. 114-055-101), at 800-fold the tested concentration and stored at -70 degrees C prior to their use. All drugs and investigational agents were tested over a range starting from a high concentration at or near the clinical Cmax and decreasing in half-log increments. If the clinical Cmax for an agent had not been determined, the highest concentration tested was 10 microM.
# Cell Culture. All cells were maintained in an incubator at 37 degrees C and 5% CO2 with 95% humidity. The PDC lines were cultured according to standard operating procedures established by the NCI PDMR. Briefly, all PDCs were thawed and cultured in Matrigel-coated flasks prepared with a working solution of 1X Ham's F-12 nutrient mix, without supplementation (Invitrogen, Waltham, MA, cat. 11765054), 100 U/mL penicillin-streptomycin (Invitrogen, cat. 15140122), and 2.5% Matrigel (Corning Inc., Corning, NY, cat. 354248) for the first three passages. The 947758-054-R-J2-PDC line was cultured in 6B/Colon 1A media, which includes advanced DMEM/F-12 (Thermo Fisher Scientific, cat. 12634028), 10 mM HEPES (Thermo Fisher Scientific, cat. 15630080), 1X GlutaMAX supplement (Thermo Fisher Scientific, cat. 35050061), 0.1 mg/mL primocin (InvivoGen, cat. ant-pm-2), 10% defined fetal bovine serum, heat inactivated (HyClone Laboratories Inc., cat. SH30070.03HI), 1.25 mM N-Acetyl-L-cysteine (Sigma-Aldrich, cat. A9165), 10 mM nicotinamide (Sigma-Aldrich, cat. N0636), 1X B-27 supplement (Thermo Fisher Scientific, cat. 17504044), 1X N-2 supplement (Thermo Fisher Scientific, cat. 17502048), and 10 microM Y-27632 dihydrochloride (Tocris Bioscience, cat. 1254). The 876862-298-R-J1-PDC was cultured in 6E media, which includes all 6B/Colon 1A media components plus 50% L-WRN conditioned media (ATCC, cat. CRL-3276), 50 ng/mL recombinant human EGF recombinant protein (hEGF; Thermo Fisher Scientific, cat. PHG0311), 10 ng/mL recombinant human fibroblast growth factor 10 (hGFG-10; PeproTech, cat. 100-26), 1 ng/mL recombinant human fibroblast growth factor 2 (hFGF-2; PeproTech, cat. 100-18B), and 1 µM prostaglandin E2 (PGE2; Tocris, cat. 2296). The 227483-062-R1-J1-PDC line was cultured in Panc media, containing all 6E components except hFGF-2, with the addition of 500 nM SB-431542 (Selleckchem, cat. S1067) and 10 nM gastrin (Tocris, cat. 3006). […]
# [1] = second compound 0.0316 µM, first compound 0.0316 µM
# [2] = second compound 0.0316 µM, first compound 0.1 µM
# [3] = second compound 0.0316 µM, first compound 0.316 µM
# [4] = second compound 0.0316 µM, first compound 1 µM
# [5] = second compound 0.0316 µM, first compound 3.16 µM
# [6] = second compound 0.0316 µM, first compound 10 µM
# [7] = second compound 0.1 µM, first compound 0.0316 µM
# [8] = second compound 0.1 µM, first compound 0.1 µM
# [9] = second compound 0.1 µM, first compound 0.316 µM
# [10] = second compound 0.1 µM, first compound 1 µM
# [11] = second compound 0.1 µM, first compound 3.16 µM
# [12] = second compound 0.1 µM, first compound 10 µM
# [13] = second compound 0.316 µM, first compound 0.0316 µM
# [14] = second compound 0.316 µM, first compound 0.1 µM
# [15] = second compound 0.316 µM, first compound 0.316 µM
# [16] = second compound 0.316 µM, first compound 1 µM
# [17] = second compound 0.316 µM, first compound 3.16 µM
# [18] = second compound 0.316 µM, first compound 10 µM
# [19] = second compound 1 µM, first compound 0.0316 µM
# [20] = second compound 1 µM, first compound 0.1 µM
# [21] = second compound 1 µM, first compound 0.316 µM
# [22] = second compound 1 µM, first compound 1 µM
# [23] = second compound 1 µM, first compound 3.16 µM
# [24] = second compound 1 µM, first compound 10 µM
# [25] = second compound 3.16 µM, first compound 0.0316 µM
# [26] = second compound 3.16 µM, first compound 0.1 µM
# [27] = second compound 3.16 µM, first compound 0.316 µM
# [28] = second compound 3.16 µM, first compound 1 µM
# [29] = second compound 3.16 µM, first compound 3.16 µM
# [30] = second compound 3.16 µM, first compound 10 µM
# [31] = second compound 10 µM, first compound 0.0316 µM
# [32] = second compound 10 µM, first compound 0.1 µM
# [33] = second compound 10 µM, first compound 0.316 µM
# [34] = second compound 10 µM, first compound 1 µM
# [35] = second compound 10 µM, first compound 3.16 µM
# [36] = second compound 10 µM, first compound 10 µM
# 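Further: spheroids exposed to drugs for 7 days before readout.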
# 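Wherever viability, T/C is given: 100% = DMSO vehicle control wells.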
smiles,measurement,setting,value
C#Cc1c(F)ccc2cc(O)cc(-c3ncc4c(N5CC6CCC(C5)N6)nc(OCC56CCCN5CC(F)C6)nc4c3F)c12 (stereo unspecified) + CN1CCN(c2cc(C(=O)Nc3cc4cc(-c5cnn(C)c5)ccc4cn3)ccn2)CC1,IC50,second compound 0.0316 µM,> 10000 nM
same,IC50,second compound 0.1 µM,501 nM
same,IC50,second compound 0.316 µM,< 31.6 nM
same,IC50,second compound 1 µM,< 31.6 nM
same,IC50,second compound 3.16 µM,< 31.6 nM
same,IC50,second compound 10 µM,< 31.6 nM
same,"viability, T/C",[1],98.9%
same,"viability, T/C",[2],92.6%
same,"viability, T/C",[3],87.8%
same,"viability, T/C",[4],93.7%
same,"viability, T/C",[5],91.6%
same,"viability, T/C",[6],74.1%
same,"viability, T/C",[7],51.6%
same,"viability, T/C",[8],52.2%
same,"viability, T/C",[9],50.8%
same,"viability, T/C",[10],48.6%
same,"viability, T/C",[11],47.7%
same,"viability, T/C",[12],45.4%
same,"viability, T/C",[13],5.98%
same,"viability, T/C",[14],5.2%
same,"viability, T/C",[15],5.69%
same,"viability, T/C",[16],4.19%
same,"viability, T/C",[17],5.76%
same,"viability, T/C",[18],4.81%
same,"viability, T/C",[19],0.92%
same,"viability, T/C",[20],0.91%
same,"viability, T/C",[21],0.75%
same,"viability, T/C",[22],1.82%
same,"viability, T/C",[23],1.86%
same,"viability, T/C",[24],1.68%
same,"viability, T/C",[25],1.56%
same,"viability, T/C",[26],2.17%
same,"viability, T/C",[27],1.31%
same,"viability, T/C",[28],2.48%
same,"viability, T/C",[29],2.22%
same,"viability, T/C",[30],3.07%
same,"viability, T/C",[31],0.96%
same,"viability, T/C",[32],0.95%
same,"viability, T/C",[33],1.74%
same,"viability, T/C",[34],1.58%
same,"viability, T/C",[35],2.68%
same,"viability, T/C",[36],1.54%
C=C(F)C(=O)N1CCN(c2nc(OCC3CCCN3C)nc3c2CCN(c2cccc4cccc(Cl)c24)C3)CC1CC#N (stereo unspecified) + CN1CCN(c2cc(C(=O)Nc3cc4cc(-c5cnn(C)c5)ccc4cn3)ccn2)CC1,IC50,second compound 0.0316 µM,4840 nM
same,IC50,second compound 0.1 µM,3190 nM
same,IC50,second compound 0.316 µM,< 31.6 nM
same,IC50,second compound 1 µM,< 31.6 nM
same,IC50,second compound 3.16 µM,< 31.6 nM
same,IC50,second compound 10 µM,< 31.6 nM
same,"viability, T/C",[1],82.8%
same,"viability, T/C",[2],93.9%
same,"viability, T/C",[3],82.3%
same,"viability, T/C",[4],95.2%
same,"viability, T/C",[5],73.6%
same,"viability, T/C",[6],9.9%
same,"viability, T/C",[7],47.9%
same,"viability, T/C",[8],51.7%
same,"viability, T/C",[9],50.4%
same,"viability, T/C",[10],51.6%
same,"viability, T/C",[11],50.4%
same,"viability, T/C",[12],4.78%
same,"viability, T/C",[13],4.71%
same,"viability, T/C",[14],4.05%
same,"viability, T/C",[15],6.86%
same,"viability, T/C",[16],5.08%
same,"viability, T/C",[17],3.01%
same,"viability, T/C",[18],0.46%
same,"viability, T/C",[19],1.31%
same,"viability, T/C",[20],1.26%
same,"viability, T/C",[21],0.91%
same,"viability, T/C",[22],1.47%
same,"viability, T/C",[23],1.43%
same,"viability, T/C",[24],0.85%
same,"viability, T/C",[25],1.01%
same,"viability, T/C",[26],1.11%
same,"viability, T/C",[27],2.16%
same,"viability, T/C",[28],1.83%
same,"viability, T/C",[29],1.72%
same,"viability, T/C",[30],0.4%
same,"viability, T/C",[31],0.93%
same,"viability, T/C",[32],1.28%
same,"viability, T/C",[33],2.22%
same,"viability, T/C",[34],1.62%
same,"viability, T/C",[35],1.63%
same,"viability, T/C",[36],1.23%
CC(CO)NC(=O)c1cc(-c2ccc(Cl)cc2)nn(-c2cnn(C)c2)c1=O (stereo unspecified) + CN1CCN(c2cc(C(=O)Nc3cc4cc(-c5cnn(C)c5)ccc4cn3)ccn2)CC1,IC50,second compound 0.0316 µM,> 10000 nM
same,IC50,second compound 0.1 µM,319 nM
same,IC50,second compound 0.316 µM,< 31.6 nM
same,IC50,second compound 1 µM,< 31.6 nM
same,IC50,second compound 3.16 µM,< 31.6 nM
same,IC50,second compound 10 µM,< 31.6 nM
same,"viability, T/C",[1],94.8%
same,"viability, T/C",[2],81.7%
same,"viability, T/C",[3],69.5%
same,"viability, T/C",[4],68.8%
same,"viability, T/C",[5],67.5%
same,"viability, T/C",[6],57.3%
same,"viability, T/C",[7],53.9%
same,"viability, T/C",[8],52.5%
same,"viability, T/C",[9],49%
same,"viability, T/C",[10],46.2%
same,"viability, T/C",[11],49.5%
same,"viability, T/C",[12],43.7%
same,"viability, T/C",[13],5.52%
same,"viability, T/C",[14],5.79%
same,"viability, T/C",[15],7.05%
same,"viability, T/C",[16],8.98%
same,"viability, T/C",[17],8.34%
same,"viability, T/C",[18],8.71%
same,"viability, T/C",[19],1.36%
same,"viability, T/C",[20],1.36%
same,"viability, T/C",[21],2.15%
same,"viability, T/C",[22],1.19%
same,"viability, T/C",[23],1.66%
same,"viability, T/C",[24],1.71%
same,"viability, T/C",[25],1.12%
same,"viability, T/C",[26],1.53%
same,"viability, T/C",[27],2.58%
same,"viability, T/C",[28],1.7%
same,"viability, T/C",[29],2.81%
same,"viability, T/C",[30],2.69%
same,"viability, T/C",[31],1.23%
same,"viability, T/C",[32],1.96%
same,"viability, T/C",[33],2.08%
same,"viability, T/C",[34],2.68%
same,"viability, T/C",[35],1.84%
same,"viability, T/C",[36],2.5%
